Article PMC7134380 (Journal of the American Chemical Society, 2020)

Target: T1, human ornithine aminotransferase (hOAT) (Homo sapiens, UniProt P04181)
T1 sequence (P04181 26-439 limits assumed): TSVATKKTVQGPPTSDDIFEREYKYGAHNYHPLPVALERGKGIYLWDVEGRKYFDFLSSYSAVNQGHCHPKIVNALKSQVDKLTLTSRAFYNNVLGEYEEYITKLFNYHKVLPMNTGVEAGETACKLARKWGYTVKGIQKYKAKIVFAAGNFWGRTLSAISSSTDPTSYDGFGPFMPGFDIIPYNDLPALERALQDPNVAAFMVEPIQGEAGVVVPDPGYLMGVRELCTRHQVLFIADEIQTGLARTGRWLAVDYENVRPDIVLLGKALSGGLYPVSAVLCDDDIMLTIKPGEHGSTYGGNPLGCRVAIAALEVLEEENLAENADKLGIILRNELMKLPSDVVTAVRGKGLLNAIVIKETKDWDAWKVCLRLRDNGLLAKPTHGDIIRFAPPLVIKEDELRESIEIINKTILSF
Experiment: time-dependent inactivation kinetics
Type: biochemical
Details: read-out: hOAT / KI; covalent; mechanism-based inactivator (kinact/KI analysis)

## N[C@H]1C[C@@H](C(=O)O)C[C@@H]1F [compound 1, (1R,3S,4S)-3-amino-4-fluorocyclopentane-1-carboxylic acid]
  KI (inactivation): 1400 ± 41 µM
